Values of other authors as cited in patent US5480649A, “Procaterol-containing preparation for application to the skin” (Teikoku Seiaku Kabushiki Kaisha, priority 1990, dated 1996).

System: β-receptor of sympathetic nerves
Conditions: background statement

## CCC(NC(C)C)C(O)c1ccc(O)c2[nH]c(=O)ccc12 (centres unmarked) [procaterol]
  bronchodilating activity: strong bronchodilating activity in very small amounts
  duration of the activity: ≥ 8 h
